From PMC8916643, “Molecular physiology of pumiliotoxin sequestration in a poison frog” (PLoS ONE, 2022)

Assays:
panel of 165 GPCRs = assay: gpcrMAX PathHunter beta-arrestin GPCR panel (agonist and antagonist); assay type: cell-based, human; settings: 10 uM; 165 GPCRs tested
Protocol: (§1) Assays for human CYP activity (CYP phenotyping), CYP2D6 metabolite discovery (metID), ion channel inhibition (CiPA), and G-protein coupled receptor (GPCR) activity (gpcrMAX) were performed through Eurofins Discovery Services (Eurofins Panlabs Inc, St. Charles MO, USA). In the CYP phenotyping panel, human recombinant CYP1A2, CYP2B6, CYP2C8, CYP2C9, CYP2C19, CYP2D6, and CYP3A4 were included in the assay. A concentration of 1E-07 M of PTX 251D was tested, and the percent compound remaining was quantified at 0, 15, 30, 45, and 60 minutes using HPLC-MS/MS. As a positive control, a reference compound was used for each CYP tested (see S1 File for results). In the CYP2D6 metabolism assay, human recombinant CYP2D6 was incubated with an initial concentration of 10 μM and metabolites were quantified after 90 minutes using LC-MS/MS. Two replicates were used for the CYP phenotyping panel and one replicate was used for CYP2D6 metabolite assay. The CiPA assay was a cell-based QPatch on voltage-gated sodium channel NaV1.5 (peak and late/agonist), voltage-gated potassium channels Kv4.3/KChIP2, hERG, KCNQ1/minK, Kir2.1, and voltage-gated calcium channel Cav1.2. The concentrations of PTX 251D assayed were 3, 10, and 30 μM, and a reference compound for each channel was used (see S1 File for results and individual QPatch parameters). […]

[1] = Alkaloid feeding experiment, alkaloid abundance in tissues by LC-MS/MS; assay type: in vivo, Dendrobates tinctorius; settings: DHQ+PTX feeding group; fed orally daily for five days
Text: Lab-reared (non-toxic) Dendrobates tinctorius were housed in terraria with live plants, a water pool, and a shelter. Ten adult females were size-matched, randomly assigned to control or experimental groups (N = 5 per group), and then housed individually. To measure the specific effects of PTX 251D compared to a background toxicity, the control group was fed 0.01% DHQ (Sigma-Aldrich, St. Louis, USA) in a solution of 1% EtOH and the experimental group was fed a solution of 0.01% DHQ and 0.01% PTX 251D (PepTech, Burlington, MA, USA) in a solution of 1% EtOH in water. Each frog was fed 15 μL each day for five days by pipetting the solution directly into the mouth between 10am-12pm. On the afternoon of the fifth day, frogs were euthanized by cervical transection and the dorsal skin, liver, intestines, and oocytes were dissected into Trizol (Thermo Fisher Scientific, Waltham, USA).
To isolate alkaloids, 0.3 mL of 100% EtOH was added to 1mL of organic layer from the Trizol RNA extraction, inverted 10 times, and stored at room temperature for 2–3 minutes to precipitate genomic DNA, which was pelleted by centrifugation at 2000g for 5 minutes at 4°C. Then, 300 μL of supernatant was transferred to a new microfuge tube. Proteins were precipitated by adding 900 μL of acetone, mixing by inversion for 10–15 seconds, incubating at room temperature for 10 min, and centrifuging at max speed for 10 min at 4°C. Then, 1 mL of the supernatant containing alkaloids was moved into a glass vial and stored at -20°C until dried down completely under a gentle nitrogen gas flow.
Samples were resuspended in 200 μl of methanol:chloroform 1:1 and 1 μM Nicotine-d3 (used as an internal standard). A 10-point standard curve was prepared in the same solution with DHQ and PTX 251D. A QE+ mass spectrometer coupled to an Ultimate3000 LC (ThermoFisher) was used for analysis. […] The gradient was 0% B for 1 min, then increased to 100% B in 14 min, followed by 5 min at 100% B and 3.5 min at 0% B. Data were quantified using accurate mass, using the standard curve for DHQ and PTX 251D for absolute quantification. aPTX 267A was identified by accurate mass and MS/MS fragmentation similarity to PTX.
R version 3.6.3 was used for all statistical analyses, and all plotting and statistics code is provided in a S1 File. There were instances in the LC-MS/MS data where the molecules of interest (DHQ, PTX 251D, or aPTX 267A) were not detected, and these were converted to zeros prior to statistical analyses and visualization. […] PTX 251D and DHQ were analyzed separately. The abundance of aPTX 267A was approximated using the area-under-the-curve divided by the internal nicotine standard, and as there is no standard for aPTX 267A, exact pmol values could not be calculated. […]

human recombinant CYP2D6 = target: T1, human recombinant CYP2D6 (Homo sapiens, UniProt P10635); assay: CYP2D6 metabolite discovery (metID); assay type: in vitro ADME; settings: initial concentration 10 μM
T1 construct: Eurofins Discovery Services (Eurofins Panlabs Inc) ran the assay
Protocol: as §1

T1 sequence (P10635 whole entry): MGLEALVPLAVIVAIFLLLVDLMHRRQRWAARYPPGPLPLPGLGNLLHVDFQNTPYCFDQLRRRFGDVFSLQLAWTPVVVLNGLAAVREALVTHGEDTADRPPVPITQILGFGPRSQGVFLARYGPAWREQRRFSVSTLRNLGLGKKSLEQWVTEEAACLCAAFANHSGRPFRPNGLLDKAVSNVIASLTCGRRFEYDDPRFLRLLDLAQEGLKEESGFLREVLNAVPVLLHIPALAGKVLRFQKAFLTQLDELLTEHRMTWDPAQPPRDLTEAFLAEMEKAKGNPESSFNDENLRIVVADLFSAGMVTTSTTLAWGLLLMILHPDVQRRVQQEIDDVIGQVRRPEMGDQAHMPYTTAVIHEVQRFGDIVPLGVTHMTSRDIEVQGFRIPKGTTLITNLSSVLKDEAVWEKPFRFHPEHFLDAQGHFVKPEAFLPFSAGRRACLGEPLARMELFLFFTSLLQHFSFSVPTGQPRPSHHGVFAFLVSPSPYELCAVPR

## CCCCC(C)C=C1CN2CCCC2C(C)(O)C1 (stereo not shown) [PTX 251D, pumiliotoxin (PTX 251D)]
Panel of 165 GPCRs
  inhibition or activation of GPCRs: no significant inhibition or activation
[1]
  PTX 251D abundance by tissue and treatment: highest levels in the liver and skin
Human recombinant CYP2D6; 90 minutes, one or two hydroxylation events
  metabolites identified with CYP2D6: two metabolites were identified
Human recombinant CYP2D6; after 90 minutes, LC-MS/MS
  clearance of PTX 251D in CYP2D6 metabolite discovery screen: completely cleared
